Reference: PMC9389588, “1,6-epi-Cyclophellitol Cyclosulfamidate Is a Bona Fide Lysosomal α-Glucosidase Stabilizer for the Treatment of Pompe Disease” (Journal of the American Chemical Society, 2022)

Experiments:
[1] = target: α-glucosidase GAA (Myozyme) (Homo sapiens, UniProt P10253); experiment: in vitro apparent IC50, GAA (Myozyme), 4-MU-α-D-glucopyranoside; type: biochemical; set-up: purchased Sanofi Genzyme; details: Myozyme 47 nM, pH 4.0, 30 min preincubation, mean ± SD
[2] = target: T1, glucosylceramide synthase (GCS) (Mus musculus, UniProt O88693); experiment: in situ cell inhibition of GCS in RAW 264.7 cells, glucosylation of C6-NBD-ceramide; type: cell-based; details: mean ± SD
T1 construct: endogenous in cells; host or cells: RAW 264.7
T1 sequence (O88693 1-394): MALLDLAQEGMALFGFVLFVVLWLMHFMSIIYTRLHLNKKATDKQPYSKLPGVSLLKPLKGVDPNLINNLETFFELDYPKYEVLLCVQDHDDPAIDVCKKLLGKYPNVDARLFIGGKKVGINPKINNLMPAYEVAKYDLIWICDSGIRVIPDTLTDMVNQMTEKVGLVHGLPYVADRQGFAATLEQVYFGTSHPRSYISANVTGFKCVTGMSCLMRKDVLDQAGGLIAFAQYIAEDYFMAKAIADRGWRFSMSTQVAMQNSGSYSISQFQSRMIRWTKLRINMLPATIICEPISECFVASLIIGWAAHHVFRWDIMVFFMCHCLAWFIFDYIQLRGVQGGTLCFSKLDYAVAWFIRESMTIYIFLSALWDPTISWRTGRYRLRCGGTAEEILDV

[3] = target: T2, ER α-glucosidase II (GANAB) (Homo sapiens, UniProt Q14697); experiment: in vitro apparent IC50, GANAB in fibroblast lysates, 4-MU-α-D-glucopyranoside; type: biochemical; details: apparent IC50; Pompe disease fibroblast lysates; pH 7.0; mean ± SD
T2 construct: GANAB (from Pompe Disease Fibroblast Lysates); endogenous in cells; host or cells: human fibroblasts (lysate)
T2 sequence (Q14697 29-944): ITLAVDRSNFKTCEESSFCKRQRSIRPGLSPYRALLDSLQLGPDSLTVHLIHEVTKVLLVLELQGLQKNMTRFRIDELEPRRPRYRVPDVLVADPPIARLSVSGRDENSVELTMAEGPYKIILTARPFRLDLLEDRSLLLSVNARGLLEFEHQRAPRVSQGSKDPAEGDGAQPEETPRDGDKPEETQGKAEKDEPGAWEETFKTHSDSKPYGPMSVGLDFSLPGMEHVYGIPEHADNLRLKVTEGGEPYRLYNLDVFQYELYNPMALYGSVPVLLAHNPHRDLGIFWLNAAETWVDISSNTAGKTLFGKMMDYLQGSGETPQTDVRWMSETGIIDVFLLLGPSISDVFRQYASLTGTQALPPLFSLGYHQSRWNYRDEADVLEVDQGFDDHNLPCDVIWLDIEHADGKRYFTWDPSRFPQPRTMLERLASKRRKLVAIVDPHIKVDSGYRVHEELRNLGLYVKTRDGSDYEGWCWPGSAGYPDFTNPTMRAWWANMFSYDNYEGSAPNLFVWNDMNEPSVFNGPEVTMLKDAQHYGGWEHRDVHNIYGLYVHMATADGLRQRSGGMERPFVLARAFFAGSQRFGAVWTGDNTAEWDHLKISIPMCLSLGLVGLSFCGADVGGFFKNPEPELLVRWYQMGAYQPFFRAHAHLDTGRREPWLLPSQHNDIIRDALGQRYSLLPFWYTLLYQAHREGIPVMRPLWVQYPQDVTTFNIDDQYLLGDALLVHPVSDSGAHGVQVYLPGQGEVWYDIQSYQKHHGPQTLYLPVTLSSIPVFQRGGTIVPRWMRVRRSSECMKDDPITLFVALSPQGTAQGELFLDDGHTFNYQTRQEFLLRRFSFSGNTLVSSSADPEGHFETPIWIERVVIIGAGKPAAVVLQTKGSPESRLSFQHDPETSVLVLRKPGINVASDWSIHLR
T2 sequence (P14314 15-528 partner): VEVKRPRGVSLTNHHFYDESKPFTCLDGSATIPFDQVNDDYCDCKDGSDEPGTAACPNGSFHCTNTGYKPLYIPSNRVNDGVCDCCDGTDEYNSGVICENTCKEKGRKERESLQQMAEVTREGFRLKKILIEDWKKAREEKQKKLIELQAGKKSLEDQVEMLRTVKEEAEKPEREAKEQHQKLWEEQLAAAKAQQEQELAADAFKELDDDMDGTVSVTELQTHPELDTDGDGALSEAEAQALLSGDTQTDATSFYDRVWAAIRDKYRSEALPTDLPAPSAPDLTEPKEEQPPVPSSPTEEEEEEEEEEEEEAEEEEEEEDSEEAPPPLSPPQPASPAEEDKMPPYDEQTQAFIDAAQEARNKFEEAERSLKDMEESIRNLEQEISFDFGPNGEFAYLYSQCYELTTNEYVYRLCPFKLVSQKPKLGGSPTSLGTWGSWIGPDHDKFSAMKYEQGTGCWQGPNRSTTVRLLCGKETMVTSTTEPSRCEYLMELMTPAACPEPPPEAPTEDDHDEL

Compound	IC50 [1]	IC50 [2]	IC50 [3]
O=S1(=O)N[C@@H]2[C@H](O)[C@@H](O)[C@H](O)[C@@H](CO)[C@@H]2O1 [compound 4, 1,6-epi-cyclophellitol cyclosulfamidate]	5.17 ± 0.195 µM	> 50 µM	496 ± 30 µM
O=S1(=O)N[C@H]2[C@H](CO)[C@@H](O)[C@H](O)[C@@H](O)[C@H]2O1 [compound 6]	112 ± 2.54 µM	> 50 µM	47 ± 1.75 µM
